Target: T1, CK1α (Homo sapiens, UniProt P48729+Q96SW2)
T1 construct: expressed in transfected cells
Test: CK1α ePL degradation assay in MDS-L cells
Assay type: cell-based
Details: MDS-L cells expressing ePL-tagged CK1α; for DC50: concentration giving 50% CK1α degradation vs DMSO control; for Y: lowest measured CK1α level normalized to DMSO control
Summary of the method: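 MDS-L cells treated with compound in a 10-point, 3-fold series from 10 μM to 0.0005 μM at 37° C, 5% CO2 for the indicated times; CK1α measured by InCELL Hunter enzyme-fragment luminescence. Levels normalized to DMSO as percent of control; lowest level reached taken as Y value.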

T1 sequence (P48729 whole entry): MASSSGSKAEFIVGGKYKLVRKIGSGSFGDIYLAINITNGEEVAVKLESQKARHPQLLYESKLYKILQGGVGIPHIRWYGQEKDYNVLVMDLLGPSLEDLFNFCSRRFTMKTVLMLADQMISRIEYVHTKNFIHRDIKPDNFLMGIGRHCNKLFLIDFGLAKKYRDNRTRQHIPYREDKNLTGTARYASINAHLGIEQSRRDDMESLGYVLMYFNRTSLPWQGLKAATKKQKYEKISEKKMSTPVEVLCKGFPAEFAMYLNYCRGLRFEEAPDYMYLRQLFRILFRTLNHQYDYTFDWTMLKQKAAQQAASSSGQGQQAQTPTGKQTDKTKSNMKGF
T1 sequence (Q96SW2 whole entry): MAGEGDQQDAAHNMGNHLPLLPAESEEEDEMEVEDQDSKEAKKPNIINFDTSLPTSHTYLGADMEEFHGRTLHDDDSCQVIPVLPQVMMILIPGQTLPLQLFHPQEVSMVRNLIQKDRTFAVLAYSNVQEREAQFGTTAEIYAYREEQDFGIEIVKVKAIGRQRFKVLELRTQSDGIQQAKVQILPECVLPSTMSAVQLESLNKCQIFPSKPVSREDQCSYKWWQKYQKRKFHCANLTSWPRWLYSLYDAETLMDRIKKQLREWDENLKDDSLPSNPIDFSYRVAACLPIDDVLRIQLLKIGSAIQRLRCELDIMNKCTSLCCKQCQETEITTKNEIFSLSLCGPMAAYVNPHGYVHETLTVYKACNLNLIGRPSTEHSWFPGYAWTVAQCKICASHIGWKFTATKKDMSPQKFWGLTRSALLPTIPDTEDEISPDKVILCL
T1 sequence (Q16531 whole entry partner): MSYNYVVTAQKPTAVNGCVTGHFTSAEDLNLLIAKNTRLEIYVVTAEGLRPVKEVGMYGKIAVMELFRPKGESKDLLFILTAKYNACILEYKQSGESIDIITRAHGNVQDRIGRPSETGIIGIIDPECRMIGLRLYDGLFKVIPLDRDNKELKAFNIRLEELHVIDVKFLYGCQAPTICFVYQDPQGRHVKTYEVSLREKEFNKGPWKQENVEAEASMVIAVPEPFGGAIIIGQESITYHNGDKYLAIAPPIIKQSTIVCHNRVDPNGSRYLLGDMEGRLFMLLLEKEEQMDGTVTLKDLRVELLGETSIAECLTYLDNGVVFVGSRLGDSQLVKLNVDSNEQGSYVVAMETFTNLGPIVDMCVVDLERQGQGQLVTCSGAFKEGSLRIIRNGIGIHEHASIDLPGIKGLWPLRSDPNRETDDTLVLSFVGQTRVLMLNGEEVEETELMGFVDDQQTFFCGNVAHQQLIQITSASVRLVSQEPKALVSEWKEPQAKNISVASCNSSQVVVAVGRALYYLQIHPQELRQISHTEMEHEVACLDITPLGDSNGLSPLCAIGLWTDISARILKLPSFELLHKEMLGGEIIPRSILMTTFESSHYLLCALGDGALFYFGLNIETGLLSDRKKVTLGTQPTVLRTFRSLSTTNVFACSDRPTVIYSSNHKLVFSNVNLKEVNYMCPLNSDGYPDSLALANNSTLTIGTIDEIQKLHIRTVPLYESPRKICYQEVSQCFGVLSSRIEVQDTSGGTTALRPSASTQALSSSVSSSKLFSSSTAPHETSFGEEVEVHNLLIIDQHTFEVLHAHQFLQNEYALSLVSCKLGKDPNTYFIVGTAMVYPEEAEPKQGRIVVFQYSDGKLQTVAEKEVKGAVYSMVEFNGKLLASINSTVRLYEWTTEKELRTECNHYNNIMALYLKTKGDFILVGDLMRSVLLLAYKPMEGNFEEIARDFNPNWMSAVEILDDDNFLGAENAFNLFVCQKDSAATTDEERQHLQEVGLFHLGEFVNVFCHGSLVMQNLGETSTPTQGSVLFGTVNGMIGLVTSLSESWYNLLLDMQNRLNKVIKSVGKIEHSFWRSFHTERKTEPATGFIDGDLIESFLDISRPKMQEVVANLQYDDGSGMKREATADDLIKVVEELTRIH

| DC50 | Y | Compound |
| --- | --- | --- |
| < 100 nM | * (a Y value (shown as *) of 0<Y≤20%) | C[C@@H](NC(=O)c1ccc2c(c1)CN(C1CCC(=O)NC1=O)C2=O)C1CCCCC1 (stereo partly shown) [Example 4] |
| 500 to 1000 nM | ** (a Y value (shown as**) of 20%<Y≤35%) | O=C1CCC(N2Cc3cc(C(=O)N[C@H](c4cncnc4)C(F)(F)F)ccc3C2=O)C(=O)N1 (stereo partly drawn) [Example 66, 2-(2,6-dioxopiperidin-3-yl)-1-oxo-N-((R)-2,2,2-trifluoro-1-(pyrimidin-5-yl)ethyl)isoindoline-5-carboxamide] |
| < 100 nM | * (a Y value (shown as *) of 0<Y≤20%) | O=C1CCC(N2Cc3c(ccc(C(=O)N[C@H](c4ccc(F)cc4Cl)C(F)(F)F)c3F)C2=O)C(=O)N1 (stereo partly drawn) [Example 145, N-((R)-1-(2-chloro-4-fluorophenyl)-2,2,2-trifluoroethyl)-2-(2,6-dioxopiperidin-3-yl)-4-fluoro-1-oxoisoindoline-5-carboxamide] |
| < 100 nM | * (a Y value (shown as *) of 0<Y≤20%) | O=C1CCC(N2Cc3cc(C(=O)N[C@H](c4cccc(Oc5ccccc5)c4)C(F)(F)F)ccc3C2=O)C(=O)N1 (stereo partly drawn) [Example 158, 2-(2,6-dioxopiperidin-3-yl)-1-oxo-N-((R)-2,2,2-trifluoro-1-(3-phenoxyphenyl)ethyl)isoindoline-5-carboxamide] |
| 100 to 500 nM | ** (a Y value (shown as**) of 20%<Y≤35%) | O=C1CCC(N2Cc3cc(C(=O)N[C@H](c4ccccc4)C(F)(F)F)c(F)cc3C2=O)C(=O)N1 (stereo partly drawn) [Example 84, 2-(2,6-dioxopiperidin-3-yl)-6-fluoro-1-oxo-N-((R)-2,2,2-trifluoro-1-phenylethyl)isoindoline-5-carboxamide] |
| < 100 nM | * (a Y value (shown as *) of 0<Y≤20%) | O=C1CCC(N2Cc3cc(C(=O)N[C@H](c4ccccc4C(F)(F)F)C(F)(F)F)c(F)cc3C2=O)C(=O)N1 (stereo partly drawn) [Example 88, 2-(2,6-dioxopiperidin-3-yl)-6-fluoro-1-oxo-N-((R)-2,2,2-trifluoro-1-(2-(trifluoromethyl)phenyl)ethyl)isoindoline-5-carboxamide] |
| < 100 nM | * (a Y value (shown as *) of 0<Y≤20%) | O=C1CCC(N2Cc3cc(C(=O)N[C@H](c4ccccc4OC(F)(F)F)C(F)(F)F)ccc3C2=O)C(=O)N1 (stereo partly drawn) [Example 44, 2-(2,6-dioxopiperidin-3-yl)-1-oxo-N-((R)-2,2,2-trifluoro-1-(2-(trifluoromethoxy)phenyl)ethyl)isoindoline-5-carboxamide] |
| < 100 nM | * (a Y value (shown as *) of 0<Y≤20%) | O=C1CCC(N2Cc3cc(C(=O)N[C@H](c4ccc(Cl)cc4Cl)C(F)(F)F)ccc3C2=O)C(=O)N1 (stereo partly drawn) [Example 163, N-((R)-1-(2,4-dichlorophenyl)-2,2,2-trifluoroethyl)-2-(2,6-dioxopiperidin-3-yl)-1-oxoisoindoline-5-carboxamide] |
| < 100 nM | * (a Y value (shown as *) of 0<Y≤20%) | O=C1CCC(N2Cc3cc(C(=O)N[C@H](c4cccc(CN5CCOCC5)c4)C(F)(F)F)ccc3C2=O)C(=O)N1 (stereo partly drawn) [Example 140, 2-(2,6-dioxopiperidin-3-yl)-1-oxo-N-((R)-2,2,2-trifluoro-1-(3-(morpholinomethyl)phenyl)ethyl)isoindoline-5-carboxamide] |
| < 100 nM | * (a Y value (shown as *) of 0<Y≤20%) | O=C1CCC(N2Cc3cc(C(=O)N[C@H](C4CCCCC4)C(F)(F)F)ccc3C2=O)C(=O)N1 (stereo partly shown) [Example 23] |
| 100 to 500 nM | ** (a Y value (shown as**) of 20%<Y≤35%) | CC(C)(C#N)[C@@H](NC(=O)c1ccc2c(c1)CN(C1CCC(=O)NC1=O)C2=O)C(F)(F)F (stereo partly drawn) [Example 87, N-((R)-3-cyano-1,1,1-trifluoro-3-methylbutan-2-yl)-2-(2,6-dioxopiperidin-3-yl)-1-oxoisoindoline-5-carboxamide] |
| 100 to 500 nM | * (a Y value (shown as *) of 0<Y≤20%) | O=C1CCC(N2Cc3cc(C(=O)NC(C4CCC5(CC4)CC(O)C5)C(F)(F)F)ccc3C2=O)C(=O)N1 (stereo not shown) [Example 176, 2-(2,6-dioxopiperidin-3-yl)-1-oxo-N-(2,2,2-trifluoro-1-(2-hydroxyspiro[3.5]nonan-7-yl)ethyl)isoindoline-5-carboxamide] |

The next lines start with the compound.

| Compound | DC50 | Y |
| --- | --- | --- |
| O=C1CCC(N2Cc3cc(C(=O)N[C@H](c4ncccc4Cl)C(F)(F)F)ccc3C2=O)C(=O)N1 (stereo partly drawn) [Example 106, N-((R)-1-(3-chloropyridin-2-yl)-2,2,2-trifluoroethyl)-2-(2,6-dioxopiperidin-3-yl)-1-oxoisoindoline-5-carboxamide] | < 100 nM | * (a Y value (shown as *) of 0<Y≤20%) |
| Cc1ccc([C@@H](NC(=O)c2ccc3c(c2F)CN(C2CCC(=O)NC2=O)C3=O)C(F)(F)F)cc1 (stereo partly drawn) [Example 144, 2-(2,6-dioxopiperidin-3-yl)-4-fluoro-1-oxo-N-((R)-2,2,2-trifluoro-1-p-tolylethyl)isoindoline-5-carboxamide] | 100 to 500 nM | * (a Y value (shown as *) of 0<Y≤20%) |
| COc1ccc([C@@H](NC(=O)c2ccc3c(c2)CN(C2CCC(=O)NC2=O)C3=O)C(F)(F)F)cc1 (stereo partly drawn) [Example 35, 2-(2,6-dioxopiperidin-3-yl)-1-oxo-N-((R)-2,2,2-trifluoro-1-(4-methoxyphenyl)ethyl)isoindoline-5-carboxamide] | < 100 nM | * (a Y value (shown as *) of 0<Y≤20%) |
| O=C1CCC(N2Cc3cc(C(=O)N[C@H](c4ccc(OC(F)(F)F)cc4)C(F)(F)F)ccc3C2=O)C(=O)N1 (stereo partly drawn) [Example 41, 2-(2,6-dioxopiperidin-3-yl)-1-oxo-N-((R)-2,2,2-trifluoro-1-(4-(trifluoromethoxy)phenyl)ethyl)isoindoline-5-carboxamide] | 100 to 500 nM | * (a Y value (shown as *) of 0<Y≤20%) |
| O=C1CCC(N2Cc3cc(C(=O)N[C@H](c4ccc(CN5CC6(COC6)C5)cc4)C(F)(F)F)ccc3C2=O)C(=O)N1 (stereo partly drawn) [Example 179, N-((1R)-1-(4-(2-oxa-6-azaspiro[3.3]heptan-6-ylmethyl)phenyl)-2,2,2-trifluoroethyl)-2-(2,6-dioxopiperidin-3-yl)-1-oxoisoindoline-5-carboxamide] | 100 to 500 nM | * (a Y value (shown as *) of 0<Y≤20%) |
| CC(C)([C@@H](NC(=O)c1ccc2c(c1)CN(C1CCC(=O)NC1=O)C2=O)C(F)(F)F)C(F)(F)F (stereo partly drawn) [Example 68, 2-(2,6-dioxopiperidin-3-yl)-N-((R)-1,1,1,4,4,4-hexafluoro-3,3-dimethylbutan-2-yl)-1-oxoisoindoline-5-carboxamide] | 100 to 500 nM | ** (a Y value (shown as**) of 20%<Y≤35%) |
| O=C1CCC(N2Cc3cc(C(=O)N[C@@H](c4ccccc4F)C(F)(F)F)ccc3C2=O)C(=O)N1 (stereo partly drawn) [Example 197, 2-(2,6-dioxopiperidin-3-yl)-1-oxo-N-((S)-2,2,2-trifluoro-1-(2-fluorophenyl)ethyl)isoindoline-5-carboxamide] | 500 to 1000 nM | *** (a Y value (shown as***) of 35%<Y<50%) |
| O=C1CCC(N2Cc3cc(C(=O)N[C@H](C4CCC(C(F)(F)F)CC4)C(F)(F)F)ccc3C2=O)C(=O)N1 (stereo partly drawn) [Example 71, 2-(2,6-dioxopiperidin-3-yl)-1-oxo-N-((1R)-2,2,2-trifluoro-1-(4-(trifluoromethyl)cyclohexyl)ethyl)isoindoline-5-carboxamide] | < 100 nM | * (a Y value (shown as *) of 0<Y≤20%) |

— patent US11306101B2 (Celgene Corporation, priority 2019, dated 2022)
